The text below walks through data of patent publication US20250049938A1, “ANTIBODY-DRUG CONJUGATE AND USE THEREOF” (priority 2021, published 2025).

This assay deals with human colon cancer SW620 cells. In words: In vitro killing of human colon cancer SW620 cells (CellTiter-Glo). Type of assay: cell-based. To be noted: FIG. 2B; 2-fold dilutions from 400 nM, 9 concentrations; culturing 4 days and 6 days. As for the experimental part: Human colon cancer SW620 cells in the logarithmic growth phase were digested with pancreatin, and subsequently resuspended in a corresponding culture medium, with the density adjusted to be 2×10^4 cells/mL. The cells were seeded into a 96-well microplate at 100 μL/well, allowing for a density of 2×10^3 cells/well, and 200 μL of the culture medium was added to each of the rest wells. After culturing for 48 h at 37° C., 5% CO2, the supernatant was pipetted from the cell culture plate. The linker-drugs (04-Dxd, 07-Dxd, 08-Dxd, and 09-Dxd), HER3 ADCs (HER3-ADC04, HER3-ADC07, HER3-ADC08, and HER3-ADC09), and a monoclonal antibody control were diluted in a 2-fold gradient with the culture medium, starting from the initial concentration of 400 nM, to obtain a total of 9 concentration gradients. The diluted samples were added at 100 μL/well. After further culturing for 4 days and 6 days, color development was carried out. The cell plate was taken out and equilibrated for 15-20 min at room temperature, and subsequently 100 μL of CellTiter-Glo® Luminescent Cell Viability assay buffer (purchased from Promega) was added. The plate was shaken for 2 min on a shaker at 200 rpm, kept for 18 min in the dark, and read using an M5 microplate reader.
followed by plotting through four-parameter fitting, with the logarithm of the concentration as the abscissa and the killing rate as the ordinate.
For orientation: ATP-based viability assays read luminescence as a measure of living cells.

Starred links: 1 amine or outer side, 2 acyl side, 3 side chain; linkers in the order of their positions; H or OH if unused. Non-standard residues stand in square brackets, D forms with d. Residues, ends and D or L forms follow the SMILES beside them. *: point of attachment. Exatecan = CC[C@@]1(O)C(=O)OCc2c1cc1n(c2=O)Cc2c-1nc1cc(F)c(C)c3c1c2[C@@H](N*)CC3; Hexanoyl(6-maleimido) = O=C1C=CC(=O)N1CCCCCC(=O)*; NHCH2OCH2CO = O=C(COCN[*:1])[*:2]

As to `CC[C@@]1(O)C(=O)OCc2c1cc1n(c2=O)Cc2c-1nc1cc(F)c(C)c3c1c2[C@@H](NC(=O)COCNC(=O)CNC(=O)[C@H](Cc1ccccc1)NC(=O)CNC(=O)CNC(=O)CCCCCN1C(=O)C=CC1=O)CC3` [04-Dxd, reference compound] ({Hexanoyl(6-maleimido)}-GGFG[NHCH2OCH2CO]-Exatecan), the “in vitro killing effect of linker-Dxd drugs on SW620 cells” value is “killing effect”.
As for `CC[C@@]1(O)C(=O)OCc2c1cc1n(c2=O)Cc2c-1nc1cc(F)c(C)c3c1c2[C@@H](NC(=O)COCNC(=O)CNC(=O)[C@H](Cc1ccccc1)NC(=O)CNC(=O)[C@H](CO)NC(=O)[C@H](CO)NC(=O)[C@H](C)NC(=O)[C@@H](NC(=O)CCCCCN1C(=O)C=CC1=O)C(C)C)CC3` [09-Dxd] ({Hexanoyl(6-maleimido)}-VASSGFG[NHCH2OCH2CO]-Exatecan), the entry is “significantly better killing effect than 04-Dxd”.
As for `CC[C@@]1(O)C(=O)OCc2c1cc1n(c2=O)Cc2c-1nc1cc(F)c(C)c3c1c2[C@@H](NC(=O)COCNC(=O)CNC(=O)[C@H](Cc1ccccc1)NC(=O)CNC(=O)[C@H](CO)NC(=O)[C@H](C)NC(=O)[C@@H](NC(=O)CCCCCN1C(=O)C=CC1=O)C(C)C)CC3` [08-Dxd] ({Hexanoyl(6-maleimido)}-VASGFG[NHCH2OCH2CO]-Exatecan), the entry is “significantly better killing effect than 04-Dxd”; as for `CC[C@@]1(O)C(=O)OCc2c1cc1n(c2=O)Cc2c-1nc1cc(F)c(C)c3c1c2[C@@H](NC(=O)COCNC(=O)CNC(=O)[C@H](Cc1ccccc1)NC(=O)CNC(=O)[C@H](C)NC(=O)[C@@H](NC(=O)CCCCCN1C(=O)C=CC1=O)C(C)C)CC3` [07-Dxd] ({Hexanoyl(6-maleimido)}-VAGFG[NHCH2OCH2CO]-Exatecan), “significantly better killing effect than 04-Dxd”.
